Results published in patent US20130178616A1, “USE OF MODIFIED OLIGO-B-(1,3)-GLUCANES FOR TREATING DISEASES OF THE IMMUNE SYSTEM OLIGO-B-(1,3V-GLUCANE-(1,3)-MANNOSE, OLIGO-B-(1,3)-GLUCANE-(1,3)-MANNITOL AND DERIVATIVES THEREOF, METHODS FOR PREPARING THE SAME AND DRUGS CONTAINING THEM” (ASE & BIO., priority 2006, published 2013).

Experiments:
Type in all cases: in vivo, Balb/c mice
[1] = system: peripheral blood cells; experiment: Phagocytosis of HEMA particles by peripheral blood cells after injection of the oligosaccharide; conditions: 100 μg/mouse by peritoneal route, 24 hours after injection, control PBS, cells with at least three HEMA particles positive, FIG. 1
Method: (§1) The control used is PBS. The dosages used are 100 μg/mouse.
(§2) One or other of a control, LAM5, LAM7, A0 or A2O were injected, by peritoneal route, into a group of Balb/c mice (Jackson laboratory, Bar Harbor, Me., USA). 24 hours after the injection the mice were sacrificed. The peripheral blood was recovered from the orbital plexus in heparin (5 IU/ml) (Sigma).
After counting, a test for phagocytosis of HEMA particles (synthetic microspheres prepared from 2-hydroxyethylmethacrylate copolymer) was carried out as described in: Rembaum et al., 1976, Vetvicka et al. 1982, Bilej et al., 1989. 0.1 ml of heparinized fresh blood was added to 0.05 ml of diluted HEMA particles (5×10^8/ml) and incubated for 60 minutes at 37° C. under occasional moderate stirring.
At the end of the incubation, the cell suspension was smeared onto microscope slides. The smears were evaluated under an optical microscope after Giemsa staining.
Cells surrounding at least three particles were considered to be positive.

[2] = system: peritoneal cells; experiment: Phagocytosis of HEMA particles by cells obtained from the peritoneal cavity after injection of the oligosaccharide; conditions: 100 μg/mouse intraperitoneal, after 24 hours, control PBS, cells with at least six HEMA particles positive, FIG. 2
Method: as §1
One or other of a control, LAM7, LAM5, A0 or A2 were injected, by intraperitoneal route, into a group of Balb/c mice (Jackson laboratory, Bar Harbor, Me., USA).
After 24 hours, the mice were sacrificed, the peritoneal cells were collected in a Hanks medium (Sigma).
After counting of the cells in a haemocytometer, the peritoneal cells were diluted to 1×10^7 in an RPMI 1640 medium (Sigma) with 5% foetal calf serum (Hyclone, Logan, Utah, USA). 2×10^6 cells in 0.2 ml of RPMI 1640 medium with 5% foetal calf serum added were mixed with the same volume of HEMA particles (5×10^8/ml).
The suspension was incubated for 60 minutes at 37° C. under occasional moderate stirring. The incubation was stopped by centrifugation (150 g for 5 minutes) and the pellet was replaced in suspension.
The macrophages with ingested particles were counted under an optical microscope in smears stained with Accustain (modified Wright stain, Sigma).
The cells surrounding at least six particles were considered as being positive.

[3] = system: peripheral blood cells; experiment: Differential count in the blood; conditions: 100 μg/mouse, same groups as Example 8; Giemsa staining; control PBS; FIG. 3
Method: as §1, §2
By using the same experimental groups as in Example 8, two additional microscope slides were prepared from each experimental sample. After Giemsa staining, the presence of individual types of cells i.e. monocytes, lymphocytes and granulocytes were evaluated for each slide with an optical microscope.

[4] = system: peritoneal cells; experiment: Differential count in the peritoneal cells; conditions: 100 μg/mouse, same groups as Example 8; Giemsa staining; control PBS; FIG. 4
Method: as §1
By using the same experimental groups as in Example 8, two additional microscope slides of each experimental sample were prepared. After Giemsa staining, the presence of individual types of cells i.e. macrophages, lymphocytes and mastocytes were evaluated for each slide with an optical microscope.

SMILES: OC[C@H]1O[C@@H](O[C@@H]2[C@@H](O)[C@H](O[C@@H]3[C@@H](O)[C@H](O[C@@H]4[C@@H](O)[C@H](O[C@@H]5[C@@H](O)[C@H](O[C@@H]6[C@H](O)[C@H](O)O[C@H](CO)[C@H]6O)O[C@H](CO)[C@H]5O)O[C@H](CO)[C@H]4O)O[C@H](CO)[C@H]3O)O[C@H](CO)[C@H]2O)[C@H](O)[C@@H](O)[C@@H]1O [Product A2, β-D-glucopyranosyl-(1→3)-β-D-glucopyranosyl-(1→3)-β-D-glucopyranosyl-(1→3)-β-D-glucopyranosyl-(1→3)-β-D-glucopyranosyl-(1→3)-β-D-mannopyranose]
- phagocytosis in the granulocytes [1]: strongly stimulate phagocytosis
- phagocytosis in the monocytes [1]: strongly stimulate phagocytosis
- phagocytosis in the granulocytes of peritoneal macrophages [2]: strongly stimulate phagocytosis
- phagocytosis in the monocytes of peritoneal macrophages [2]: strongly stimulate phagocytosis
- number of granulocytes in the peripheral blood [3]: increase the number
- number of monocytes in the peripheral blood [3]: increase the number
- number of granulocytes in the peritoneal cavity [4]: increase the number
- number of monocytes in the peritoneal cavity [4]: increase the number
